Assay results reported in ChEMBL document CHEMBL1201862, “PubChem BioAssay data set” (2004).
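The compound was tested at five concentrations on cells cultured in 96-well plates, with a 48-hour exposure period. The concentration for 50% growth inhibition is given as GI50.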 Calls of active or inactive are those of the source. Cut-off read from the data, not from the text of the source: active = GI50 up to about 1.1 µM and inactive = higher.

Columns and labels:
Test in all cases: NCI tumour cell line growth inhibition, 48 h
LOX IMVI = tested on: LOX IMVI
XF498 = tested on: XF498
COLO 205 = tested on: COLO 205
NCI-H460 = tested on: NCI-H460
SK-MEL-5 = tested on: SK-MEL-5
RXF 393 = tested on: RXF 393
K562 = tested on: K562
SR = tested on: SR
UO-31 = tested on: UO-31
UACC-62 = tested on: UACC-62
LXFL 529 = tested on: LXFL 529
OVCAR-5 = tested on: OVCAR-5
NCI-H23 = tested on: NCI-H23
TK-10 = tested on: TK-10
HCT-15 = tested on: HCT-15
A549 = tested on: A549
ACHN = tested on: ACHN
Malme-3M = tested on: Malme-3M
HT-29 = tested on: HT-29
SF-295 = tested on: SF-295
CCRF-CEM = tested on: CCRF-CEM
SK-OV-3 = tested on: SK-OV-3
KM12 = tested on: KM12
HL-60 = tested on: HL-60
SW-620 = tested on: SW-620
NCI-H522 = tested on: NCI-H522
KM-20L2 = tested on: KM-20L2
RXF 631 = tested on: RXF 631
MOLT-4 = tested on: MOLT-4
RPMI-8226 = tested on: RPMI-8226
OVCAR-4 = tested on: OVCAR-4
CAKI-1 = tested on: CAKI-1
SN12C = tested on: SN12C
SNB-75 = tested on: SNB-75
OVCAR-8 = tested on: OVCAR-8
SK-MEL-28 = tested on: SK-MEL-28
M14 = tested on: M14
A498 = tested on: A498
NCI-H226 = tested on: NCI-H226
HCT-116 = tested on: HCT-116
SF-539 = tested on: SF-539
SNB-78 = tested on: SNB-78
DMS-273 = tested on: DMS-273
OVCAR-3 = tested on: OVCAR-3
SK-MEL-2 = tested on: SK-MEL-2
HOP-62 = tested on: HOP-62
EKVX = tested on: EKVX
DMS-114 = tested on: DMS-114
SNB-19 = tested on: SNB-19
U-251 = tested on: U-251
DLD-1 = tested on: DLD-1
M19-MEL = tested on: M19-MEL
UACC-257 = tested on: UACC-257
HOP-92 = tested on: HOP-92
HCC 2998 = tested on: HCC 2998
IGROV-1 = tested on: IGROV-1
HOP-18 = tested on: HOP-18
786-0 = tested on: 786-0
SF-268 = tested on: SF-268

Compound: Cc1ccccc1/C=C/c1csnn1
- GI50 (LOX IMVI): > 58.7 µM (inactive)
- GI50 (XF498): > 100 µM (inactive)
- GI50 (COLO 205): > 100 µM (inactive)
- GI50 (NCI-H460): > 47.3 µM (inactive)
- GI50 (SK-MEL-5): > 100 µM (inactive)
- GI50 (RXF 393): > 100 µM (inactive)
- GI50 (K562): > 100 µM (inactive)
- GI50 (SR): > 100 µM (inactive)
- GI50 (UO-31): > 100 µM (inactive)
- GI50 (UACC-62): > 100 µM (inactive)
- GI50 (LXFL 529): > 100 µM (inactive)
- GI50 (OVCAR-5): > 100 µM (inactive)
- GI50 (NCI-H23): > 100 µM (inactive)
- GI50 (TK-10): > 100 µM (inactive)
- GI50 (HCT-15): > 42.2 µM
- GI50 (A549): > 57.3 µM (inactive)
- GI50 (ACHN): > 100 µM (inactive)
- GI50 (Malme-3M): > 100 µM (inactive)
- GI50 (HT-29): > 100 µM (inactive)
- GI50 (SF-295): > 100 µM (inactive)
- GI50 (CCRF-CEM): 60.3 µM (inactive)
- GI50 (SK-OV-3): > 100 µM (inactive)
- GI50 (KM12): > 100 µM (inactive)
- GI50 (HL-60): 21.1 µM (inactive)
- GI50 (SW-620): > 56.4 µM (inactive)
- GI50 (NCI-H522): > 100 µM (inactive)
- GI50 (KM-20L2): > 100 µM (inactive)
- GI50 (RXF 631): > 100 µM (inactive)
- GI50 (MOLT-4): > 100 µM (inactive)
- GI50 (RPMI-8226): 33.4 µM (inactive)
- GI50 (OVCAR-4): > 100 µM (inactive)
- GI50 (CAKI-1): > 100 µM (inactive)
- GI50 (SN12C): > 100 µM (inactive)
- GI50 (SNB-75): > 100 µM (inactive)
- GI50 (OVCAR-8): > 100 µM (inactive)
- GI50 (SK-MEL-28): > 100 µM (inactive)
- GI50 (M14): > 100 µM (inactive)
- GI50 (A498): > 100 µM (inactive)
- GI50 (NCI-H226): > 100 µM (inactive)
- GI50 (HCT-116): > 44 µM (inactive)
- GI50 (SF-539): > 100 µM (inactive)
- GI50 (SNB-78): > 100 µM (inactive)
- GI50 (DMS-273): > 100 µM (inactive)
- GI50 (OVCAR-3): > 100 µM (inactive)
- GI50 (SK-MEL-2): > 100 µM (inactive)
- GI50 (HOP-62): > 100 µM (inactive)
- GI50 (EKVX): > 100 µM (inactive)
- GI50 (DMS-114): > 40.6 µM (inactive)
- GI50 (SNB-19): > 100 µM (inactive)
- GI50 (U-251): > 100 µM (inactive)
- GI50 (DLD-1): > 49.5 µM (inactive)
- GI50 (M19-MEL): > 80.5 µM (inactive)
- GI50 (UACC-257): > 100 µM (inactive)
- GI50 (HOP-92): > 100 µM (inactive)
- GI50 (HCC 2998): > 100 µM (inactive)
- GI50 (IGROV-1): > 100 µM (inactive)
- GI50 (HOP-18): > 100 µM (inactive)
- GI50 (786-0): > 100 µM (inactive)
- GI50 (SF-268): > 46.2 µM (inactive)
